# From ChEMBL document CHEMBL3112491, “3-(5-)-Amino-o-diarylisoxazoles: regioselective synthesis and antitubulin activity” (2014)
# Key:
# Type in all cases: functional
# MDA-MB-231 = experiment: Growth inhibition of human MDA-MB-231 cells after 48 hrs by sulforhodamine B assay; settings: MDA-MB-231, 48 h
# KM12 = experiment: Growth inhibition of human KM12 cells after 48 hrs by sulforhodamine B assay; settings: KM12, 48 h
# [1] = Growth inhibition of human HCC2998 cells after 48 hrs by sulforhodamine B assay; settings: HCC 2998, 48 h
# [2] = Growth inhibition of human SF539 cells after 48 hrs by sulforhodamine B assay; settings: SF-539, 48 h
# PC-3 = experiment: Growth inhibition of human PC3 cells after 48 hrs by sulforhodamine B assay; settings: PC-3, 48 h
# HCT-116 = experiment: Growth inhibition of human HCT116 cells after 48 hrs by sulforhodamine B assay; settings: HCT-116, 48 h
# U-251 = experiment: Growth inhibition of human U251 cells after 48 hrs by sulforhodamine B assay; settings: U-251, 48 h
# OVCAR-3 = experiment: Growth inhibition of human OVCAR3 cells after 48 hrs by sulforhodamine B assay; settings: OVCAR-3, 48 h
# [3] = Growth inhibition of human UO31 cells after 48 hrs by sulforhodamine B assay; settings: UO-31, 48 h
# LOX IMVI = experiment: Growth inhibition of human LOXIMVI cells after 48 hrs by sulforhodamine B assay
# NCI-H226 = experiment: Growth inhibition of human NCI-H226 cells after 48 hrs by sulforhodamine B assay; settings: NCI-H226, 48 h
# RPMI-8226 = experiment: Growth inhibition of human RPMI8226 cells after 48 hrs by sulforhodamine B assay; settings: RPMI-8226, 48 h
# MCF7 = experiment: Growth inhibition of human MCF7 cells after 48 hrs by sulforhodamine B assay; settings: MCF7, 48 h
# CCRF-CEM = experiment: Growth inhibition of human CCRF-CEM cells after 48 hrs by sulforhodamine B assay
# [4] = Growth inhibition of human NCI-ADR-RES cells after 48 hrs by sulforhodamine B assay
# OVCAR-8 = experiment: Growth inhibition of human OVCAR8 cells after 48 hrs by sulforhodamine B assay; settings: OVCAR-8, 48 h
# [5] = Growth inhibition of human RXF393 cells after 48 hrs by sulforhodamine B assay; settings: RXF 393, 48 h
# SN12C = experiment: Growth inhibition of human SN12C cells after 48 hrs by sulforhodamine B assay
# MDA-MB-435 = experiment: Growth inhibition of human MDA-MB-435 cells after 48 hrs by sulforhodamine B assay; settings: MDA-MB-435, 48 h
# SR = experiment: Growth inhibition of human SR cells after 48 hrs by sulforhodamine B assay
# M14 = experiment: Growth inhibition of human M14 cells after 48 hrs by sulforhodamine B assay; settings: M14, 48 h
# 786-0 = experiment: Growth inhibition of human 786-0 cells after 48 hrs by sulforhodamine B assay; settings: 786-0, 48 h
# IGROV-1 = experiment: Growth inhibition of human IGROV1 cells after 48 hrs by sulforhodamine B assay; settings: IGROV-1, 48 h
# SK-OV-3 = experiment: Growth inhibition of human SKOV3 cells after 48 hrs by sulforhodamine B assay; settings: SK-OV-3, 48 h
# MOLT-4 = experiment: Growth inhibition of human MOLT4 cells after 48 hrs by sulforhodamine B assay; settings: MOLT-4, 48 h
# NCI-H522 = experiment: Growth inhibition of human NCI-H522 cells after 48 hrs by sulforhodamine B assay; settings: NCI-H522, 48 h
# HL-60(TB) = experiment: Growth inhibition of human HL-60(TB) cells after 48 hrs by sulforhodamine B assay; settings: HL-60, 48 h
# HCT-15 = experiment: Growth inhibition of human HCT15 cells after 48 hrs by sulforhodamine B assay; settings: HCT-15, 48 h
# MDA-MB-468 = experiment: Growth inhibition of human MDA-MB-468 cells after 48 hrs by sulforhodamine B assay; settings: MDA-MB-468, 48 h
# UACC-62 = experiment: Growth inhibition of human UACC62 cells after 48 hrs by sulforhodamine B assay; settings: UACC-62, 48 h
# [6] = Growth inhibition of human EKVX cells after 48 hrs by sulforhodamine B assay
# Paracentrotus lividus [7] = experiment: Antimitotic activity in sea urchin fertilized egg assessed as cleavage arrest treated at 8 to 20 mins post-fertilization measured at 2.5 to 5.5 hrs post-fertilization
# SNB-19 = experiment: Growth inhibition of human SNB19 cells after 48 hrs by sulforhodamine B assay; settings: SNB-19, 48 h
# HOP-62 = experiment: Growth inhibition of human HOP62 cells after 48 hrs by sulforhodamine B assay; settings: HOP-62, 48 h
# COLO 205 = experiment: Growth inhibition of human COLO205 cells after 48 hrs by sulforhodamine B assay; settings: COLO 205, 48 h
# SK-MEL-2 = experiment: Growth inhibition of human SK-MEL-2 cells after 48 hrs by sulforhodamine B assay; settings: SK-MEL-2, 48 h
# SW-620 = experiment: Growth inhibition of human SW620 cells after 48 hrs by sulforhodamine B assay; settings: SW-620, 48 h
# Paracentrotus lividus [8] = experiment: Antimitotic activity in sea urchin fertilized egg assessed as cleavage alteration treated at 8 to 20 mins post-fertilization measured at 2.5 to 5.5 hrs post-fertilization
# NCI-H23 = experiment: Growth inhibition of human NCI-H23 cells after 48 hrs by sulforhodamine B assay; settings: NCI-H23, 48 h
# DU-145 = experiment: Growth inhibition of human DU145 cells after 48 hrs by sulforhodamine B assay; settings: DU-145, 48 h
# SF-295 = experiment: Growth inhibition of human SF295 cells after 48 hrs by sulforhodamine B assay; settings: SF-295, 48 h
# [9] = Growth inhibition of human Hs 578T cells after 48 hrs by sulforhodamine B assay
# A549 = experiment: Growth inhibition of human A549/ATCC cells after 48 hrs by sulforhodamine B assay; settings: A549, 48 h
# Paracentrotus lividus [10] = experiment: Microtubule destabilizing activity in sea urchin free-swimming blastula assessed as embryo spinning treated at 9 to 10 hrs post-fertilization measured after 0.15 to 15 hrs
# SF-268 = experiment: Growth inhibition of human SF268 cells after 48 hrs by sulforhodamine B assay; settings: SF-268, 48 h
# K562 = experiment: Growth inhibition of human K562 cells after 48 hrs by sulforhodamine B assay; settings: K562, 48 h
# A498 = experiment: Growth inhibition of human A498 cells after 48 hrs by sulforhodamine B assay; settings: A498, 48 h
# SNB-75 = experiment: Growth inhibition of human SNB75 cells after 48 hrs by sulforhodamine B assay; settings: SNB-75, 48 h
# SK-MEL-28 = experiment: Growth inhibition of human SK-MEL-28 cells after 48 hrs by sulforhodamine B assay; settings: SK-MEL-28, 48 h
# NCI-H460 = experiment: Growth inhibition of human NCI-H460 cells after 48 hrs by sulforhodamine B assay; settings: NCI-H460, 48 h
# [11] = Growth inhibition of human OVCAR4 cells after 48 hrs by sulforhodamine B assay; settings: OVCAR-4, 48 h
# BT-549 = experiment: Growth inhibition of human BT549 cells after 48 hrs by sulforhodamine B assay; settings: BT-549, 48 h
# T47D = experiment: Growth inhibition of human T47D cells after 48 hrs by sulforhodamine B assay
# HT-29 = experiment: Growth inhibition of human HT-29 cells after 48 hrs by sulforhodamine B assay; settings: HT-29, 48 h
# SK-MEL-5 = experiment: Growth inhibition of human SK-MEL-5 cells after 48 hrs by sulforhodamine B assay; settings: SK-MEL-5, 48 h
# Malme-3M = experiment: Growth inhibition of human MALME-3M cells after 48 hrs by sulforhodamine B assay
# TK-10 = experiment: Growth inhibition of human TK10 cells after 48 hrs by sulforhodamine B assay; settings: TK-10, 48 h
# ACHN = experiment: Growth inhibition of human ACHN cells after 48 hrs by sulforhodamine B assay
# NCI-H322M = experiment: Growth inhibition of human NCI-H322M cells after 48 hrs by sulforhodamine B assay
# CAKI-1 = experiment: Growth inhibition of human CAKI-1 cells after 48 hrs by sulforhodamine B assay; settings: CAKI-1, 48 h
# [12] = Growth inhibition of human UACC257 cells after 48 hrs by sulforhodamine B assay; settings: UACC-257, 48 h
# [13] = Growth inhibition of human OVCAR5 cells after 48 hrs by sulforhodamine B assay; settings: OVCAR-5, 48 h
smiles,measurement,setting,value
COc1ccc(-c2c(-c3cc(OC)c4c(c3)OCO4)noc2N)cc1,GI50,MDA-MB-231,124 nM
same,GI50,KM12,18.1 nM
same,GI50,[1],118 nM
same,GI50,[2],38.1 nM
same,GI50,PC-3,44 nM
same,GI50,HCT-116,46.3 nM
same,GI50,U-251,30.8 nM
same,GI50,OVCAR-3,21.9 nM
same,GI50,[3],82.2 nM
same,GI50,LOX IMVI,57.9 nM
same,GI50,NCI-H226,121 nM
same,GI50,RPMI-8226,49.9 nM
same,GI50,MCF7,31.5 nM
same,GI50,CCRF-CEM,36.3 nM
same,GI50,[4],19.1 nM
same,GI50,OVCAR-8,58.5 nM
same,GI50,[5],22.3 nM
same,GI50,SN12C,217 nM
same,GI50,MDA-MB-435,< 10 nM
same,GI50,SR,< 10 nM
same,GI50,M14,32.3 nM
same,GI50,786-0,73.5 nM
same,GI50,IGROV-1,99.7 nM
same,GI50,SK-OV-3,31.8 nM
same,GI50,MOLT-4,71.4 nM
same,GI50,NCI-H522,< 10 nM
same,GI50,HL-60(TB),35.1 nM
same,GI50,HCT-15,48.2 nM
same,GI50,MDA-MB-468,18.7 nM
same,GI50,UACC-62,59.7 nM
same,GI50,[6],10700 nM
same,EC,Paracentrotus lividus [7],0.002 µM
same,GI50,SNB-19,65.8 nM
same,GI50,HOP-62,30.2 nM
same,GI50,COLO 205,34.1 nM
same,GI50,SK-MEL-2,25.9 nM
same,GI50,SW-620,29.4 nM
same,EC,Paracentrotus lividus [8],0.0005 µM
same,GI50,NCI-H23,37.8 nM
same,GI50,DU-145,47.2 nM
same,GI50,SF-295,22.8 nM
same,GI50,[9],32.4 nM
same,GI50,A549,59.6 nM
same,EC,Paracentrotus lividus [10],0.05 µM
same,GI50,SF-268,148 nM
same,GI50,K562,19.3 nM
same,GI50,A498,22 nM
same,GI50,SNB-75,33.9 nM
same,GI50,SK-MEL-28,13.6 nM
same,GI50,NCI-H460,35.2 nM
same,GI50,[11],114 nM
same,GI50,BT-549,3920 nM
same,GI50,T47D,39.4 nM
same,GI50,HT-29,34.6 nM
same,GI50,SK-MEL-5,29.8 nM
COc1ccc(-c2noc(N)c2-c2cc(OC)c3c(c2)OCO3)cc1,GI50,MDA-MB-231,2350 nM
same,GI50,KM12,1580 nM
same,GI50,[1],1960 nM
same,GI50,[2],1690 nM
same,GI50,PC-3,3290 nM
same,GI50,HCT-116,2440 nM
same,GI50,Malme-3M,9660 nM
same,GI50,OVCAR-3,2630 nM
same,GI50,[3],5900 nM
same,GI50,NCI-H226,13700 nM
same,GI50,RPMI-8226,2910 nM
same,GI50,MCF7,798 nM
same,GI50,CCRF-CEM,1020 nM
same,GI50,[4],563 nM
same,GI50,OVCAR-8,3620 nM
same,GI50,[5],2360 nM
same,GI50,SN12C,4100 nM
same,GI50,TK-10,6360 nM
same,GI50,MDA-MB-435,237 nM
same,GI50,SR,454 nM
same,GI50,M14,1300 nM
same,GI50,ACHN,6210 nM
same,GI50,786-0,5460 nM
same,GI50,NCI-H322M,6660 nM
same,GI50,IGROV-1,4860 nM
same,GI50,SK-OV-3,3410 nM
same,GI50,MOLT-4,1280 nM
same,GI50,NCI-H522,1020 nM
same,GI50,HL-60(TB),1290 nM
same,GI50,HCT-15,620 nM
same,GI50,MDA-MB-468,9660 nM
same,GI50,CAKI-1,2780 nM
same,GI50,UACC-62,5100 nM
same,EC,Paracentrotus lividus [7],2 µM
same,GI50,SNB-19,20400 nM
same,GI50,HOP-62,2850 nM
same,GI50,COLO 205,1850 nM
same,GI50,SW-620,726 nM
same,EC,Paracentrotus lividus [8],0.2 µM
same,GI50,NCI-H23,2820 nM
same,GI50,DU-145,3110 nM
same,GI50,SF-295,2800 nM
same,GI50,[9],2810 nM
same,GI50,A549,2730 nM
same,EC,Paracentrotus lividus [10],>5 µM
same,GI50,SF-268,5000 nM
same,GI50,K562,404 nM
same,GI50,[12],6680 nM
same,GI50,A498,1310 nM
same,GI50,SNB-75,1810 nM
same,GI50,SK-MEL-28,6790 nM
same,GI50,NCI-H460,2870 nM
same,GI50,[11],22800 nM
same,GI50,BT-549,3400 nM
same,GI50,T47D,2750 nM
same,GI50,[13],5010 nM
same,GI50,HT-29,1330 nM
same,GI50,SK-MEL-5,3360 nM
